Results published in PubChem BioAssay (NCI).
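Results reflect a 48-hour exposure of cells in 96-well plates to compound at five concentrations. Definition used: TGI = concentration required for complete inhibition of growth.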

Tests used:
Assay in all cases: inhibition of tumour cell growth, NCI panel, 48 h
[1] = tested on: SF-268 CNS
[2] = tested on: EKVX NSCLC
[3] = tested on: U251 CNS
[4] = tested on: A549 NSCLC
[5] = tested on: K-562 leukemia
[6] = tested on: UACC-62 melanoma
[7] = tested on: SK-MEL-2 melanoma
[8] = tested on: NCI-H226 lung
[9] = tested on: UO-31 renal
[10] = tested on: HT29 colon
[11] = tested on: LOX IMVI melanoma
[12] = tested on: CCRF-CEM leukemia
[13] = tested on: SK-MEL-28 melanoma
[14] = tested on: SF-539 CNS
[15] = tested on: MDA-MB-231 breast
[16] = tested on: BT-549 breast
[17] = tested on: PC-3 prostate
[18] = tested on: MDA-N

Compound	TGI [1]	TGI [2]	TGI [3]	TGI [4]	TGI [5]	TGI [6]	TGI [7]	TGI [8]	TGI [9]	TGI [10]	TGI [11]	TGI [12]	TGI [13]	TGI [14]	TGI [15]	TGI [16]	TGI [17]	TGI [18]
CCCOC(=O)C1CCC(=O)N1C(=O)C(C)Cl (stereo not drawn)	> 100 µM	> 100 µM	> 100 µM	> 100 µM	> 100 µM	> 100 µM	> 100 µM	> 100 µM	> 100 µM	> 100 µM	> 100 µM	> 100 µM	> 100 µM					
Cc1ccc(N=NC2S/C(=C(\C#N)c3nc4ccccc4[nH]3)N(c3ccccc3)C2=O)cc1 (stereo not drawn)	> 100 µM	> 100 µM	> 100 µM	> 100 µM	> 100 µM	> 100 µM	> 100 µM	> 100 µM	> 100 µM	> 100 µM	> 100 µM	> 100 µM	> 100 µM	> 100 µM				
C=[N+](CNC(=O)CNC(=O)C(Cc1ccc([N+](=O)[O-])cc1)NC(=O)OC(C)(C)C)C(=O)CNC(=O)C(Cc1ccc([N+](=O)[O-])cc1)NC(=O)OC(C)(C)C (stereo not drawn)	61.8 µM	> 100 µM	> 100 µM	> 100 µM	> 100 µM	50.1 µM		> 100 µM	> 100 µM	> 100 µM	33.4 µM		72.6 µM	57.9 µM	59 µM	85.5 µM	> 100 µM	
c1ccc2c(c1)Nc1ccccc1[P+]21c2ccccc2Nc2ccccc21	6.63 µM	2.74 µM	1.4 µM	3.29 µM	1.75 µM		0.482 µM	0.66 µM	23.3 µM	2.9 µM	2.23 µM	0.85 µM	1.65 µM	0.817 µM	0.588 µM		0.609 µM	1.11 µM
COP(=O)(Cc1ccc(/C=C/C#N)o1)OC	> 100 µM	> 100 µM	> 100 µM	> 100 µM	> 100 µM	> 100 µM		> 100 µM		> 100 µM		> 100 µM	> 100 µM	> 100 µM	> 100 µM			
Cc1ccc(O)c(C(c2ccc([N+](=O)[O-])cc2)c2cc(C)ccc2O)c1	22 µM	34.3 µM	48.8 µM	25.6 µM	> 100 µM	21.7 µM	23.9 µM	39.9 µM	15.2 µM	30 µM	55.6 µM	56.9 µM	38.4 µM	32.1 µM	26.2 µM		14.3 µM	
O=[N+]([O-])c1ccc2[nH]nc(OCc3ccccn3)c2c1	> 100 µM	> 100 µM	> 100 µM	> 100 µM	> 100 µM	> 100 µM	> 100 µM	> 100 µM	> 100 µM	> 100 µM	> 100 µM	> 100 µM	> 100 µM	> 100 µM	> 100 µM		> 100 µM	> 100 µM
CC1=NOC2(C1)C(=O)Nc1ccccc12 (stereo not drawn)	> 100 µM	> 100 µM	> 100 µM	> 100 µM	> 100 µM	> 100 µM	> 100 µM	> 100 µM		> 100 µM	> 100 µM	> 100 µM	> 100 µM	> 100 µM	> 100 µM		> 100 µM	> 100 µM
C=CCOC(=O)Cn1cc(C)c(=O)[nH]c1=O	> 100 µM	> 100 µM	> 100 µM	> 100 µM	> 100 µM	> 100 µM	> 100 µM	> 100 µM	> 100 µM	> 100 µM	> 100 µM	> 100 µM	> 100 µM	> 100 µM	> 100 µM		> 100 µM	> 100 µM
Nc1ccc2nc(NCc3ccc(F)cc3)cnc2c1	> 100 µM	> 100 µM	> 100 µM	> 100 µM	> 100 µM	> 100 µM	> 100 µM	> 100 µM	> 100 µM	> 100 µM	> 100 µM	> 100 µM	> 100 µM	> 100 µM				
n1onc2c1NC1Nc3nonc3NC1N2 (stereo not drawn)	> 100 µM	> 100 µM	> 100 µM	> 100 µM	> 100 µM			> 100 µM	> 100 µM	> 100 µM	> 100 µM	> 100 µM	> 100 µM	> 100 µM			> 100 µM	> 100 µM
N#CCCN(c1ccc(/C=C2\N=C(Cc3ccccc3)OC2=O)cc1)S(=O)(=O)c1ccccc1	> 100 µM	> 100 µM	> 100 µM	> 100 µM	> 100 µM	> 100 µM	> 100 µM	> 100 µM	> 100 µM	> 100 µM	> 100 µM	> 100 µM	> 100 µM	> 100 µM				
CCCCCCCc1cc(OC(=O)c2c(C)cc(OC)cc2O)cc(O)c1C(=O)O	45.9 µM	77 µM	32.1 µM	83.9 µM	> 100 µM	43.7 µM	36.9 µM		30.6 µM	> 100 µM	48.7 µM	78.6 µM	38.7 µM	32.6 µM				
O=[N+]([O-])c1ccc(-c2nc3ccc([N+](=O)[O-])cc3[nH]2)cc1	> 100 µM	> 100 µM	70.1 µM	62.7 µM		> 100 µM	59.6 µM	> 100 µM	61.4 µM	> 100 µM	67.8 µM		> 100 µM	> 100 µM		85.7 µM	70.7 µM	> 100 µM
CC(C)(C)OC(=O)CC(NC(=O)OC(C)(C)C)C(=O)N[C@@H]1CCCC[C@H]1C(=O)OCc1ccccc1 (stereo partly drawn)	> 100 µM	> 100 µM	61.4 µM	93.4 µM	> 100 µM	60.8 µM	61.1 µM	60.3 µM	53.8 µM	59.1 µM	> 100 µM	83.2 µM	> 100 µM	64 µM	> 100 µM		> 100 µM	> 100 µM
